From article doi:10.1101/2025.09.10.675409, “ACAD10 encodes two orphan enzymes in the ether lipid biosynthetic and salvage pathways” (bioRxiv, 2026)

Assays:
[1] = biological target: T1, C. elegans ACAD10 KD (ACAD10 kinase domain) (Caenorhabditis elegans, UniProt O01590); test: […] incorporation, TLC, phosphorimaging; format: biochemical; conditions: [γ-32P]ATP
T1 construct: gene acds-10; kinase domain, residues 209-568, purified
T1 sequence (O01590 209-568): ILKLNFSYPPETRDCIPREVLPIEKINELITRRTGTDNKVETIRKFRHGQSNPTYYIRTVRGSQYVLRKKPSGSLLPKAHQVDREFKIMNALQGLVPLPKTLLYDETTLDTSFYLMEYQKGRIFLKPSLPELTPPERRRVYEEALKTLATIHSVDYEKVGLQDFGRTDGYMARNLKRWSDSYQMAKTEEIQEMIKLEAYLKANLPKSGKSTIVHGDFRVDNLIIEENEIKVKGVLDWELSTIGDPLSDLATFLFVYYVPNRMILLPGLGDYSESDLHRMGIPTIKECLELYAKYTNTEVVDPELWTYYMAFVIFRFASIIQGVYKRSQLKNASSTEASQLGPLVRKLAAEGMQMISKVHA

[2] = biological target: T2, C. elegans ACAD10 phosphatase domain (Caenorhabditis elegans, UniProt O01590); test: dephosphorylation of […]-labelled lipid, TLC, phosphorimaging; format: biochemical; conditions: labelled compound; Mg2+
T2 construct: gene acds-10; phosphatase domain, residues 1-212
T2 sequence (O01590 1-212): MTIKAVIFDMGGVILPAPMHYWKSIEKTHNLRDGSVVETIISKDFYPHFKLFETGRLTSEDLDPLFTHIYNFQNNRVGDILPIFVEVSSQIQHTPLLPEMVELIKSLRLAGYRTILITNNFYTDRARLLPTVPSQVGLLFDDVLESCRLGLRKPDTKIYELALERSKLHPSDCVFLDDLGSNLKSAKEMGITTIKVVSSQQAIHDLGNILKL

[3] = biological target: T3, C. thermarum ACAD10 kinase domain (Caldalkalibacillus thermarum, UniProt F5L6J0); test: X-ray crystallography, […] Å; format: binding; conditions: nucleotide groove between N- and C-lobe; Mg2+ and acetyl-CoA in crystallization, neither seen
T3 construct: gene CathTA2_1440; purified prokaryotic ACAD10 kinase domain homolog; HYDxK motif with D214/K216, N219, DWE motif D234-E236, R61, E78

[4] = biological target: T3, C. thermarum ACAD10 kinase domain; test: […] incorporation, TLC, phosphorimaging; format: biochemical; conditions: activator; binding site only modelled, no density in crystal
[5] = biological target: T1, C. elegans ACAD10 KD (ACAD10 kinase domain); test: […] incorporation into lipid, TLC; format: biochemical; conditions: activator; purified domain with mouse liver mitochondrial extract as lipid source; Mg2+

CCCCCCCCCCCCCCCCOCC(O)CO (racemic) [chimyl alcohol, 1-O-hexadecyl-rac-glycerol]
32P incorporation, TLC, phosphorimaging [1]: C. elegans ACAD10 phosphorylated chimyl alcohol (1-O-hexadecyl-rac-glycerol) (Figure 1G)

CCCCCCCCCCCCCCCCOC[C@H](COP(=O)(O)O)OC(C)=O [1-alkyl (16:0), 2-acetyl (2:0), 1-O-alkyl-2-acetyl-sn-glycero-3-phosphate]
dephosphorylation of 32P-labelled lipid, TLC, phosphorimaging [2]: phosphatase domain selectively dephosphorylated 1-O-alkyl-2-acetyl-sn-glycero-3-phosphate but not 1-O-alkyl-2-acyl-sn-glycero-3-phosphate

Nc1ncnc2c1ncn2[C@@H]1O[C@H](COP(=O)(O)OP(=O)(O)NP(=O)(O)O)[C@@H](O)[C@H]1O [AMP-PNP]
X-ray crystallography, 2.15 Å [3]: crystal structure of the Caldalkalibacillus thermarum ACAD10 kinase domain bound to the ATP analog AMP-PNP

CC(=O)SCCNC(=O)CCNC(=O)[C@H](O)C(C)(C)COP(=O)(O)OP(=O)(O)OC[C@H]1O[C@@H](n2cnc3c(N)ncnc32)[C@H](O)[C@@H]1OP(=O)(O)O [acetyl-CoA]
32P incorporation, TLC, phosphorimaging [4]: acetyl-CoA stimulates C. thermarum ACAD10 kinase domain
32P incorporation into lipid, TLC [5]: In addition to acetyl-CoA, CoA alone or other CoA thioesters also activated
